# Test results: US20130203815A1, “CYTOKINE INHIBITORS” (PIRAMAL ENTERPRISES LIMITED, priority 2010, published 2013)
# Where a name gives a salt, the structure may show the parent alone.
# What was measured:
# Type in all cases: cell-based
# [1] = test system: IL-1β; assay: hPBMCs assay, LPS-induced IL-1β; conditions: Homo sapiens, LPS 1 μg/ml, 5 hours, ELISA
# Experimental: (§1) TNF-α production by lipopolysaccharides (LPS) in hPBMCs was measured according to the method described in literature (Physiol. Res., 2003, 52, 593-598). Blood was collected from healthy donors into Potassium EDTA vacutainer tubes (BD vacutainer). The PBMCs were isolated using gradient centrifugation in Histopaque-1077 solution (Sigma). Isolated PBMC were suspended in RPMI 1640 culture medium (Sigma-Aldrich Fine Chemicals, USA), containing 10% fetal bovine serum (FBS) (JRH, USA), 100 U/ml penicillin (Sigma Chemical Co. St Louis, Mo.) and 100 μg/ml streptomycin (Sigma Chemical Co. St Louis, Mo.). The cell concentration was adjusted to 1×10^6 cells/ml. The viability as determined by trypan blue dye exclusion was uniformly ≧98%. The cell suspension (100 μl) was added to the wells of a 96-well culture plate. Following cell plating, 79 μl of the culture medium and 1 μl of eight different concentrations of the test compounds (final concentration 0.03, 0.1, 0.3, 1, 3, 10, 30, 100 μg/ml) dissolved in DMSO were added to the cells. The final concentration of DMSO was adjusted to 0.5%. The vehicle (0.5 DMSO) was used as control. Rolipram (300 μM) was used as a standard compound. The plates were incubated for 30 minutes at 37° C. in an atmosphere of 5% CO2. Finally, 20 μl (10 μg/ml) per well of LPS, (Escherchia coli 0127:B8, Sigma Chemical Co., St. Louis, Mo.) was added, for a final concentration of 1 µg/ml. The plates were incubated at 37° C. for 5 hours in an atmosphere of 5% CO2. To assess the cytotoxic effect of the test compounds, the cellular viability test was performed using MTS (3-(4,5-dimethylthiazol-2-yl)-5-(3-carboxymethoxyphenyl)-2-(4-sulfonyl)-2H-tetrazolium) reagent after 5 hours of incubation. Supernatants were harvested and assayed for TNF-α, interleukin-1β (IL-1β), interleukin-6 (IL-6) and interleukin-8 (IL-8) by ELISA as described by the manufacturer. (OptiEIA ELISA sets, BD Biosciences, Pharmingen). […]
# [2] = test system: IL-6; assay: hPBMCs assay, LPS-induced IL-6; conditions: Homo sapiens, LPS 1 μg/ml, 5 hours, ELISA
# Experimental: as §1
# [3] = test system: TNF-α; assay: hPBMCs assay, LPS-induced TNF-α; conditions: Homo sapiens, LPS 1 μg/ml, 5 hours, ELISA
# Experimental: as §1
# [4] = test system: IL-8; assay: hPBMCs assay, LPS-induced IL-8; conditions: Homo sapiens, LPS 1 μg/ml, 5 hours, ELISA
# Experimental: as §1
# [5] = test system: TNF-α; assay: Whole blood cell culture assay, LPS-induced TNF-α release; conditions: Homo sapiens, at a concentration of 10 μM, LPS 1 μg/ml, 4.5 hours
# Experimental: TNF-α production by lipopolysaccharide (LPS) in whole blood was measured according to the method described in literature (J. Immunol. Methods, 1991, 139, 233-240).
# Blood was collected from healthy donors into potassium EDTA vacutainer tubes (Becton Dickinson) and diluted with RPMI (Roswell Park Memorial Institute) 1640 culture medium (Gibco BRL, Pasley, UK) containing 100 U/ml penicillin and 100 μg/ml streptomycin, (100× solution, Sigma Chemical Co. St Louis, Mo.) with no added serum. The white blood cell count was adjusted to 1×10^6 cells/ml and 100 it/well of the diluted blood was transferred into 96-well culture plates. Following cell plating, 79 μl of culture medium and 1 μl of the test compounds (final concentration 1 μM and 10 μM) dissolved in DMSO was added to the cells. The final concentration of DMSO was adjusted to 0.5%. 1 μl of vehicle (0.5% DMSO) was used as control. Rolipram (300 μM) was used as a standard compound. The plates were incubated for 30 minutes at 37° C. in an atmosphere of 5% CO2. Finally, 20 μl (10 μg/ml) per well of LPS (Escherchia coli 0127:B8, Sigma Chemical Co. St. Louis, Mo.) was added, for a final concentration of 1 μg/ml. Plates were incubated at 37° C. for 4.5 hours in an atmosphere of 5% CO2. Supernatants were harvested and assayed for TNF-α by ELISA as described by the manufacturer (OptiEIA ELISA sets, BD Biosciences, Pharmingen). Percent inhibition of TNF-α release in comparison to the control was calculated.
SMILES,IC50 [1] [µM],IC50 [2] [µM],IC50 [3] [µM],IC50 [4] [µM],inhibition at 10 µM [5] [%]
"COc1cc(OC)c(C2CCN(C)C2CO)c(O)c1C(=O)C=Cc1ccccc1Cl (racemic) [Example 20, (+/−)3-(2-Chlorophenyl)-1-(2-hydroxy-3-(2-(hydroxymethyl)-1-methylpyrrolidin-3-yl)-4,6-dimethoxy-phenyl)prop-2-en-1-one hydrochloride]",0.8,4.9,0.9,6.5,66
"COc1cc(OC)c(C2CCN(C)C2CO)c(O)c1C(=O)C=Cc1cccc(Br)c1 (racemic) [Example 21, (+/−)3-(3-Bromophenyl)-1-(2-hydroxy-3-(2-(hydroxymethyl)-1-methylpyrrolidin-3-yl)-4,6-dimethoxy-phenyl)prop-2-en-1-one]",0.2,2.3,0.8,5.2,61
"COc1cc(OC)c(C2CCN(C)C2CO)c(O)c1C(=O)C=Cc1cccc(C)c1 (racemic) [Example 23, (+/−)1-(2-Hydroxy-3-(2-(hydroxymethyl)-1-methylpyrrolidin-3-yl)-4,6-dimethoxy-phenyl)-3-m-tolylprop-2-en-1-one]",,,,,32
"COc1cc(OC)c(C2CCN(C)C2CO)c(O)c1C(=O)C=Cc1cccc([N+](=O)[O-])c1 (racemic) [Example 25, (+/−)1-(2-Hydroxy-3-(2-(hydroxymethyl)-1-methylpyrrolidin-3-yl)-4,6-dimethoxy-phenyl)-3-(3-nitrophenyl)prop-2-en-1-one]",0.1,2.5,0.5,5.4,68
"COc1cc(OC)c(C2CCN(C)C2CO)c(O)c1C(=O)C=Cc1ccc(Cl)cc1 (racemic) [Example 28, (+/−)3-(4-Chlorophenyl)-1-(2-hydroxy-3-(2-(hydroxymethyl)-1-methylpyrrolidin-3-yl)-4,6-dimethoxy-phenyl)prop-2-en-1-one]",,,,,30
"COc1cc(OC)c(C2CCN(C)C2CO)c(O)c1C(=O)C=Cc1ccc(F)cc1 (racemic) [Example 29, (+/−)3-(4-Fluorophenyl)-1-(2-hydroxy-3-(2-(hydroxymethyl)-1-methylpyrrolidin-3-yl)-4,6-dimethoxy-phenyl)prop-2-en-1-one]",,,,,31
"COc1cc(OC)c(C2CN(C)C(=O)C2CO)c(O)c1C(=O)C=Cc1ccccc1Cl (racemic) [Example 39, (+/−)4-(3-(3-(2-Chlorophenyl)acryloyl)-2-hydroxy-4,6-dimethoxy-phenyl)-3-(hydroxymethyl)-1-methylpyrrolidin-2-one]",,,,,75
"COc1cc(OC)c(C2CCN(C)C2CO)c(O)c1C(=O)C=Cc1ccc(C)o1 (racemic) [Example 45, (+/−)1-(2-Hydroxy-3-(2-(hydroxymethyl)-1-methylpyrrolidin-3-yl)-4,6-dimethoxy-phenyl)-3-(5-methylfuran-2-yl)prop-2-en-1-one]",,,,,54
"COc1cc(OC)c(C2CCN(C)C2CO)c(O)c1C(=O)C=Cc1cccnc1 (racemic) [Example 48, (+/−)1-(2-Hydroxy-3-(2-(hydroxymethyl)-1-methylpyrrolidin-3-yl)-4,6-dimethoxy-phenyl)-3-(pyridin-3-yl)prop-2-en-1-one]",,,,,61
